In PubChem BioAssay AID489027 (Sanford-Burnham Center for Chemical Genomics, 2010) one finds EC50 data, which are given here for 79 molecules.

pEC50: −log10 of the molar value. Activity calls are given as the source filed them. The rule behind the calls is not given here.

The target in the assay is UPR counterscreen luciferase reporter, luminescence. Kind of assay: activators in UPR counterscreen luciferase reporter, dose response, counter-screen for adaptive UPR activator project, cell-based, luminescence (AID 489027). A general note: Counterscreens check selectivity or assay interference.
As to `CCOC(=O)c1c(-c2ccc(C)o2)csc1NC(=O)COC(=O)c1ccc(NC(N)=O)cc1`, the EC50 is > 80 µM (inactive).

`COc1ccc(C(=O)/C=C/c2ccc(O)cc2)c(O)c1C/C=C(\C)CCC=C(C)C`: the pEC50 is 4.82. Regarding `Cc1ccnc(N/C=C(\C#N)c2nc(-c3cccc(Br)c3)cs2)c1`, the pEC50 is 4.72.

Turning to `COc1cccc(C(=O)Oc2cc3c4c(c2)C(C)=CC(C)(C)N4C(=O)C3=O)c1`, the negative-log EC50 (pEC50) was 4.80. `COc1ccccc1-c1cc(-c2ccccc2)nc(SC(C(N)=O)c2ccccc2)c1C#N` (centres undefined): the EC50 was > 80 µM (inactive). Consider `Cc1cc(N2CCN(c3nc(-c4ccc([N+](=O)[O-])cc4)cs3)CC2)c2ccccc2n1`, for which the pEC50 was 4.82. In the case of `C=C(C)[C@@]12OC3(c4ccccc4)O[C@@H]1C1[C@@H]4O[C@]4(CO)[C@@H](O)[C@]4(O)C(=O)C(C)=C[C@H]4[C@@]1(O3)[C@H](C)[C@H]2OC(=O)/C=C/C=C/c1ccccc1` (some centres undefined), the EC50 result was “inactive”. Consider `O=C(c1ccc2c(c1)[nH]c(=S)n1c3ccccc3nc21)N1CCN(c2cccc(Cl)c2)CC1`, for which the pEC50 is 4.79. For the molecule `COC(=O)c1c(C)oc2ccc(N(C(=O)Oc3ccccc3)S(=O)(=O)c3ccc(Cl)c([N+](=O)[O-])c3)cc12`, the negative-log EC50 (pEC50) was 4.90. Same read-out and setting: with `NS(=O)(=O)c1ccc(N/N=C2/CCCCC2C2CCCCC2)c([N+](=O)[O-])c1` (centres undefined) the figure was 4.82; with `Cc1c(Cl)cccc1Nc1nc(NCCO)c2ccccc2n1`, 4.77. With `Cc1ccc(NC(=O)c2c(C)nc3sc(C(=O)NC4CCCC4)c(N)c3c2-c2ccco2)c(C)c1`, the EC50 entry was “inactive”.

In the case of `Nc1nc(Nc2cccc(C(F)(F)F)c2)nc(C(F)(F)F)n1`, the EC50 result was “inactive”. The same measure, in the same setting: with `COc1ccc(Nc2nc(N)c([N+](=O)[O-])c(NC3CCCCC3)n2)cc1` the figure was > 80 µM (inactive); with `NS(=O)(=O)c1ccc(NC(=O)COC(=O)c2cn(-c3ccccc3)nc2-c2ccc(F)cc2)cc1`, “inactive”; with `Cc1cc(NC(=O)/C(C#N)=C/c2ccc(-c3ccc(SC(F)F)cc3)o2)n(-c2ccccc2)n1`, > 80 µM (inactive). With `Cn1nc(C(F)(F)F)c(/C=N/OC(=O)c2ccccc2)c1SCc1ccccc1Cl`, the EC50 result was “inactive”. `O=[N+]([O-])c1cc(-c2ccc(/C=N/c3nc4ccccn4c3-c3ccco3)o2)ccc1Cl`: the EC50 is > 80 µM (inactive). With `COc1ccc(NC(=O)CSc2nc3ccc(Nc4nc(N5CCOCC5)nc(N5CCOCC5)n4)cc3s2)cc1`, the EC50 is > 80 µM (inactive). Take `O=C(C[n+]1ccc(-c2cc(C(=O)Nc3cccc(C(F)(F)F)c3)c3ccccc3n2)cc1)c1cccc([N+](=O)[O-])c1`: the negative logarithm of the EC50 (pEC50) was 4.77. `COC(=O)Cc1csc(/N=C/c2c(O)n(-c3cccc(C(F)(F)F)c3)c(=O)c3ccccc23)n1`: the EC50 is > 80 µM (inactive). As for `C#CCn1c(=NC(=O)c2ccc(Cl)s2)sc2cccc(OC)c21`, the EC50 was > 80 µM (inactive). As to `CN1/C(=C\C(=O)COC(=O)c2ccc(O)c(O)c2)C(C)(C)c2ccccc21`, the pEC50 is 5.18.

Take `Cn1c(=O)c2c(SCC(=O)Nc3ccccc3F)nc(-c3ccccc3F)nc2n(C)c1=O`: the EC50 result was “inactive”. Same read-out and setting: then `CCN(CC)S(=O)(=O)c1ccc2c(c1)C(=NO)c1cc(S(=O)(=O)N(CC)CC)ccc1-2`, with > 80 µM (inactive); and `O=C(CSc1nc2ccc(Nc3nc(N4CCOCC4)nc(N4CCOCC4)n3)cc2s1)Nc1ccccc1F`, with > 80 µM (inactive).

In the case of `CCOc1ccccc1CNC(=O)C1CCN(c2nnc(C)c3c(C)n(-c4ccc(C)cc4)nc23)CC1`, the EC50 is > 80 µM (inactive). Still for that read-out and setting: with `COC(=O)c1c(NC(=O)CC2Nc3ccccc3NC2=O)sc(C)c1C` (centres undefined) the entry was “inactive”. Consider `CC(C)=CCCC1(C)C=Cc2c(ccc3c2[nH]c2cc(O)c(C)cc23)O1` (centres undefined), for which the negative-log EC50 (pEC50) is 4.71. Consider `CCCCCCCCCCOC(=O)Cn1c(COc2ccc(C)cc2)[n+](C)c2ccccc21`, for which the EC50 is > 80 µM (inactive). On the same count and under the same terms, with `COc1ccccc1C(=O)NC(=S)NNC(=O)c1sc2ccccc2c1Cl` the entry was “inactive”. The same measure, in the same setting: then `COc1cc(N(C(=O)Cc2cccs2)C(C(=O)NC2CCCCC2)c2ccc(C)cc2)ccc1-n1cnnn1` (centres undefined), with > 80 µM (inactive); and `Cc1cc(-n2c(SCC(=O)Nc3ccc(F)c(F)c3)nc3n[nH]c(C)c3c2=N)ccc1Cl`, with > 80 µM (inactive); and `CCC(=O)Nc1ccc(-c2cc(-c3ccccc3)nc(-c3ccc(NC(=O)CC)cc3)n2)cc1`, with > 80 µM (inactive). Regarding `O=C(NCc1ccccc1Cl)c1cccc2c1C(=O)c1ccc(-c3ccc(OC(F)(F)F)cc3)cc1S2(=O)=O`, the pEC50 is 5.04.

With `Cc1ccc(Cn2c(C(C)Nc3nc(-c4ccc(F)cc4)cs3)nc3cc(Cl)c(Cl)cc32)cc1` (centres undefined), the EC50 entry is “inactive”. On the same count and under the same terms, with `COc1ccc(-c2nn(-c3ccccc3)cc2/C=N/N2C(=O)CSC2=S)cc1` the figure was > 80 µM (inactive); with `COc1ccc(-c2cc(C(F)F)n3ncc(C(=O)Nc4ccc(C(=O)N5CCOCC5)cc4)c3n2)cc1`, > 80 µM (inactive). As to `O=C1NC(=O)N(Cc2ccc(F)cc2)C(=O)/C1=C/c1cccs1`, the pEC50 is 4.86. `CCOC(=O)C1=C(O)/C(=C/c2cn(CC(=O)NCC3CCCO3)c3ccccc23)SC1=Nc1ccc(C)cc1` (centres undefined): the EC50 was > 80 µM (inactive). Take `Cc1ccc(Nc2nc(NCCO)c3ccccc3n2)cc1C`: the EC50 is > 80 µM (inactive). `COc1cc(/C=C(/C#N)c2nc3ccccc3[nH]2)ccc1OCC(=O)Nc1ccccc1C`: the pEC50 is 5.42.

Consider `COc1ccc(C2NCCc3c2[nH]c2ccccc32)cc1COc1ccc(F)cc1` (centres undefined), for which the negative logarithm of the EC50 (pEC50) was 4.74. On the same count and under the same terms, then `NCCc1c(-c2ccccc2)n(-c2ccccc2)c2ccccc12`, with 4.75.

Consider `O=C(Nc1ccc2oc(-c3ccccc3Cl)nc2c1)c1cncc(Br)c1`, for which the EC50 is > 80 µM (inactive).

On to `O=C(Nc1ccc(NC(=O)c2sc3ccccc3c2Cl)cc1Cl)c1ccco1`, for which the EC50 entry is “inactive”. Regarding `CCN(CC)c1ccc(-c2nn3c(-c4ccccc4OC)nnc3s2)cc1`, the EC50 entry was “inactive”. Same read-out and setting: then `Cc1cccn2c(=O)c3cc(C(=O)NC4CCCCCC4)sc3nc12`, with > 80 µM (inactive); and `Cc1[nH]c2ccccc2c1/C=C/c1nc2ccccc2c(=O)n1-c1ccc([N+](=O)[O-])cc1`, with > 80 µM (inactive). On to `Cc1c(C(=O)Nc2nccs2)oc2ccc(Br)cc12`, for which the EC50 is > 80 µM (inactive).

Regarding `COc1ccc(-c2cc(=O)oc3c(C)c(OC(=O)c4cccs4)ccc23)cc1`, the EC50 is > 80 µM (inactive).

As to `OC(CNCC1CCCO1)Cn1c2ccc(Br)cc2c2cc(Br)ccc21` (centres undefined), the EC50 was > 80 µM (inactive). On the same count and under the same terms, with `O=C(Nc1ccc(Cl)cc1)Nc1ccccc1Sc1ncc([N+](=O)[O-])s1` the entry was “inactive”. Still for that read-out and setting: then `COc1cc(C(=O)Nc2cc(-c3nc4cc(C)ccc4o3)ccc2C)cc(OC)c1OC`, with “inactive”; and `COc1ccc(-c2c(-c3cc(OC)cc(OC)c3)n(C)c3ccc(-c4cnc(N)nc4)cc23)cc1`, with > 80 µM (inactive). In the case of `Cc1ccc(-c2nnc(-c3ccc(NC(=O)Cc4cccs4)cc3)o2)cc1`, the EC50 was > 80 µM (inactive). On the same count and under the same terms, with `CCN(CC)c1ccc(N=Cc2c(O)n(Cc3ccccc3)c(=O)[nH]c2=O)cc1` the entry was “inactive”. Still for that read-out and setting: then `CCCNC(=O)c1ccc2c(=O)c(O)c(-c3ccc(OC)cc3)[nH]c2c1`, with > 80 µM (inactive); and `COc1ccc(CCn2c(C3CCCCC3)nc3c(c(=O)c4ccccc4n3C)c2=O)cc1`, with > 80 µM (inactive); and `CCOc1cc(/C=C(\C#N)c2[nH]nc(N)c2C#N)ccc1O`, with > 80 µM (inactive).

Turning to `CCOC(=O)c1ccc(-c2ccc(/C=N/NC(=O)CN(c3cccc(C)c3)S(C)(=O)=O)o2)cc1`, the negative-log EC50 (pEC50) was 4.81. In the case of `CCCCNc1c(-c2ccc(SC(C)CC)cc2)nc2cnccn12` (centres undefined), the negative logarithm of the EC50 (pEC50) is 4.85.

Consider `CCCCNc1c(-c2ccc(-c3ccc(C(C)=O)cc3)c(OC)c2)nc2cc(C)ccn12`, for which the EC50 was > 80 µM (inactive). As to `C=CCn1c(O)c(C2=c3ccccc3=NC2=O)sc1=Nc1ccc(O)cc1`, the pEC50 was 4.74. Turning to `CC(C)N(C(=O)[C@H]1C[C@H](CC(=O)NCC23CC4CC(CC(C4)C2)C3)C(=O)N2CCc3c([nH]c4ccc(Cl)cc34)[C@]12C)C(C)C`, the EC50 result is “inactive”. `O=C(C[C@H]1C[C@H](C(=O)N2CCCCC2)[C@@]2(CCc3ccccc3)c3[nH]c4ccc(Cl)cc4c3CCN2C1=O)NCCC1=CCCCC1`: the EC50 entry is “inactive”. For the molecule `CCOC(=O)c1nnc(-c2ccccc2)nc1Oc1ccc(Cl)cc1`, the pEC50 was 4.71. As for `CC(C)c1cccc(-c2ccc3c(c2)S(=O)(=O)c2cccc(C(=O)NCc4ccccc4Cl)c2C3=O)c1`, the pEC50 is 5.14. For `Cc1ccc(N=Cc2c(O)n(-c3ccc4c(c3)OCO4)c(=O)c3ccccc23)cc1`, the EC50 is > 80 µM (inactive). Turning to `CCOC(=O)c1[nH]c2ccc(Cl)cc2c1NC(=O)/C=C/c1ccc2c(c1)OCO2`, the EC50 entry was “inactive”. With `CCOc1ccccc1NC(=O)Cn1c(=O)n(-c2ccccc2)c(=O)c2oc3ccccc3c21`, the EC50 is > 80 µM (inactive). Consider `O=C(C[C@H]1C/C=C\C[C@@H](NC(=O)OCC2c3ccccc3-c3ccccc32)C(=O)O[C@@H](c2ccccc2)CNC1=O)N[C@H](CO)Cc1ccccc1`, for which the pEC50 is 4.74. With `Cc1ccc(-n2nc3c(N4CCC(C(=O)NCCc5ccccc5C)CC4)nnc(C)c3c2C)cc1`, the EC50 is > 80 µM (inactive). Consider `O=C(NC(=S)Nc1cc(-c2nc3ccccc3[nH]2)ccc1Cl)c1ccc2c(c1)OCO2`, for which the negative logarithm of the EC50 (pEC50) is 5.09. On the same count and under the same terms, with `CCc1ccc(-c2cc(C(F)(F)F)n3nc(C(=O)Nc4cnn(Cc5ccc(C)cc5)c4)cc3n2)s1` the figure was 5.47.

With `CC(C)(C)C(=O)NC(=S)NNC(=O)c1sc2ccccc2c1Cl`, the EC50 was > 80 µM (inactive). On the same count and under the same terms, then `Cn1cc(/C=C(\C#N)C(=O)Nc2cccc([N+](=O)[O-])c2)c2ccccc21`, with > 80 µM (inactive); and `COc1cccc(-c2c(-c3cc(OC)cc(OC)c3)n(C)c3ccc(-c4cnc(N5CCOCC5)nc4)cc23)c1`, with “inactive”. As to `N=c1n(CC(=O)c2ccc([N+](=O)[O-])cc2)c2ccccc2n1Cc1ccc(Cl)cc1`, the negative-log EC50 (pEC50) was 5.10.

The EC50 is the concentration needed to bring the measured effect to its halfway point. The pEC50 is the EC50 on a negative log10 scale, so that one unit is a factor of ten.
